From patent US11135228B2, “Cysteinyl-proresolving mediators that promote resolution of infection and organ protection” (THE BRIGHAM AND WOMEN'S HOSPITAL, priority 2014, dated 2021)
Entries after “also recorded” stand apart in the source; their conditions may differ.

Legend:
[1] = system: Human macrophages; assay: Human macrophage efferocytosis of apoptotic PMN; format: cell-based; conditions: 10 pM-100 nM, 15 min, then apoptotic PMN 45 min; planarian isolates likewise
Protocol: (§1) Leukocyte phagocytosis: Macrophages were prepared from peripheral blood mononuclear cells (PBMC) purchased from Children's Hospital Blood Bank, Boston, and phagocytosis was assessed as in (11). Briefly, macrophages (5×10^4 cells,/well) were incubated with SCI (10 pM-100 nM), SCII (10 pM-100 nM), MaR1 (10 pM-100 nM), or vehicle (0.1% EtOH in DPBS) for 15 min at 37° C., then fluorescent labeled apoptotic cells were added and cells incubated 45 min at 37° C. Extracellular fluorescence was quenched using Trypan blue (1:15 dilution) and phagocytosis assessed using an M3 SpectraMax plate reader. In select experiments, macrophages (5×10^4 cells/well) or neutrophils (1×10^5 cells/well) were obtained from human healthy volunteers' peripheral blood as in (11) in accordance with Partners Human Research Committee Protocol (#1999P001297), and incubated with H2DCFDA (5 μM, 30 min, 37° C.), then with SCI (10 pM-100 nM), SCI (10 pM-100 nM) or vehicle (0.1% EtOH in DPBS, 15 min, 37° C.) and E. coli (1:50 leukocytes to E. coli, 45 min, 37° C.) Intracellular reactive oxygen species were determined by measuring fluorescence using an M3 SpectraMax plate reader. To assess bacterial phagocytosis, macrophages (5×10^4 cells/well) or neutrophils (1×10^5 cells/well) were incubated with SCI (10 pM-100 nM), SCII (10 pM-100 nM) or vehicle (0.1% EtOH in DPBS, 15 min, 37° C.), then incubated with BacLight Green (Molecular Probes) labeled E. coli (1:50 leukocytes to E. coli, 45 min, 37° C.), Extracellular fluorescence was quenched using Trypan blue (1:15 dilution), and phagocytosis assessed using an M3 SpectraMax plate reader.
In determined experiments, human macrophages were incubated with SC isolates from regenerating planaria for 15 min at 37° C., then fluorescent labeled apoptotic cells were added and efferocytosis was assessed as detailed above.
Macrophage bacterial phagocytosis, efferocytosis, and phagolysosontal acidification: Human macrophages were plated in 96-well plates (5×10^4 cells per well) for 24 h, and phagocytosis or efferocytosis was assessed as in (14). In brief, apoptotic PMNs were obtained by culturing cells overnight in PBS^−/− (5×10^6 cells/ml). Apoptotic human PMNs were labeled with bisbenzimide H33342 trihydrochloride (Sigma-Aldrich). Human macrophages were incubated with 0.1-10 nM concentration of test products, and then labeled apoptotic PMNs were cocultured with macrophages for 40 min [37° C. […]]. Fluorescence was read on a SpectraMax M3 plate reader (Molecular Devices, Sunnyvale, Calif., USA), and results were analyzed using SoftMax Pro (Molecular Devices).

[2] = system: E. coli; assay: Murine E. coli peritonitis: leukocyte counts, resolution indices, in vivo phagocytosis; design: species or system mouse; conditions: for leukocyte phagocytosis of E. coli in vivo: co-administration of SCI and SCII 50 ng each, i.p.; for resolution of infections in mice: co-administration of equal amounts of SCI and SCII
Protocol: Murine Peritonitis: Mouse experiments were conducted in accordance with guidelines from Harvard Medical Area Standing Committee on Animals (protocol no. 02570). Mice were inoculated with E. coli (serotype 06:K2:H1) as in (11) and peritoneal exudates were collected by lavaging the peritoneal cavity with 4 ml of PBS (without calcium and magnesium) at the indicated intervals. Leukocytes were enumerated by light microscopy using nuclear morphology staining with Turks solution and flow cytometry probing for CD11b-PerCP/Cy5.5 (eBioscience, clone: M1/70), F4/80-PE (eBioscience, BM8) and Ly6G-FITC (eBioscience, clone: 1A8) as in (11). For product isolation, 24 h peritoneal exudates were collected and 2 volumes of ice-cold methanol were added. Isolates were obtained as detailed in the lipid mediator metabotolipidomics section.
In select experiments 12 h after E. coli inoculation, mice were administered either 100 ng of SCI and SCII (50 ng/each per mouse) or vehicle (saline containing 0.1% ethanol (EtOH)) via i.p. injection. Peritoneal exudates were then collected and leukocyte counts determined as above. Assessment of leukocyte phagocytosis of E. coli in inflammatory exudates was conducted as in (11). Briefly cells were incubated with anti-CD11b-Per(T/Cy5.5 conjugated antibody; subsequently the cells were permeabilized using BD Cytofix/Cytoperm™ Fixation/Permeabilization Kit following manufacturer's instructions; cells were then incubated with a FITC conjugated anti-E. coli antibody (GTX40856; GeneTex) and phagocytosis assessed as mean fluorescence in the CD11b- positive cell population.
Resolution indices were calculated as in (11) where Ψmax=the maximal PMN numbers in the exudates; Tmax=the time point when PMN numbers reach maximum; R50=50% of maximal PMN numbers; T50=the time point when PMN numbers reduce to 50% of maximum; Ri (resolution interval)=T50−Tmax, the time period when 50% PMN are lost from the exudates.

[3] = system: Mice (hind-limb ischemia/reperfusion); assay: Hind-limb ischemia reperfusion, second organ reflow injury; format: in vivo, mouse; conditions: for protection from leukocyte-mediated tissue damage: SCI (50 ng) plus SCII (50 ng) i.v. 10 min prior to reperfusion, lung H&E; for Ki67 and RSPO3 in lung sections (immunofluorescence), tissue repair / plasma eicosanoid levels, including LTB4, LTC4 and TxB2: SCI plus SCII 50 ng each i.v.
Protocol: Ischemia Reperfusion: Mice were anesthetized by intraperitoneal (i.p.) injection of […]. To initiate hind-limb ischemia, tourniquets consisting of a rubber band were placed on each hind limb. Ten min prior to the initiation of reperfusion, Vehicle (saline containing 0.1% EtOH), SCI (50 ng) plus SCII (50 ng) or Resolvin D1 (500 ng) were administered by intravenous injection. At the end of reperfusion (3 h), mice were euthanized, blood collected via cardiac puncture and plasma isolated for lipid mediator metabololipidomics. Lungs were harvested, left lungs were frozen in liquid nitrogen and stored at −80° C. Right lungs were stored in 10% (v/v) buffered formalin and processed for histology and hematoxylin and eosin (H&E) staining by the Children's Hospital Boston Core Histology Facility, imaged using a Keyence BZ-9000 microscope and BZ II imaging software (Keyence) Expression of Ki67 and Roof plate-specific Spondin-3 (RSPO3) were assessed by immunofluorescence staining. Briefly, sections were deparafinized in xylene and rehydrated, then blocked in 10% horse serum and stained with either rat anti-mouse RSPON3 antibody (R&D Systems) for 1 h at room temperature and then with sheep anti-rat Alexa-594 conjugated antibody (BioLegend), or with rabbit anti-mouse antibody (Abeam) and then with donkey anti-rabbit Alexa-488 antibody (BioLegend). Slides were mounted in Vector Shield mounting solution with DAPI (Vector Labs) and immunofluorescence assessed using a Zeiss LSM 510 Meta confocal microscope. Images were processed using ImageJ software (National Institutes of Health) and Adobe Photoshop CS6 (Adobe Systems incorporated) software. Frozen lungs were gently dispersed, centrifuged, and tissue myeloperoxidase (MPO) levels were determined using mouse MPO ELISA (R&D Systems).

[4] = system: Human neutrophils; assay: Human neutrophil phagocytosis of fluorescently labeled E. coli; format: cell-based; conditions: 10 pM-100 nM, 15 min, then E. coli 45 min
Protocol: as §1, with “To assess bacterial phagocytosis, macrophages (5×10^4 cells/well) or neutrophils (1×10^5 cells/well) were incubated with SCI (10 pM-100 nM), SCII (10 pM-100 nM) or vehicle (0.1% EtOH in DPBS, 15 min, 37° C.), then incubated with BacLight Green (Molecular Probes) labeled E. coli (1:50 leukocytes to E. coli, 45 min, 37° C.), Extracellular fluorescence was quenched using Trypan blue (1:15 dilution), and phagocytosis assessed using an M3 SpectraMax plate reader.” left out

Compound | macrophage efferocytosis of apoptotic cells [1] | leukocyte phagocytosis of E. coli in vivo [2] | resolution of infections in mice [2] | protection from leukocyte-mediated tissue damage [3] | Ki67 and RSPO3 in lung sections (immunofluorescence), tissue repair [3] | plasma eicosanoid levels, including LTB4, LTC4 and TxB2 [3] | neutrophil phagocytosis of E. coli [4]
13-glutathionyl, 14-hydroxy-docosahexaenoic acid [SCI] | dose-dependently increased; also recorded: Stimulates human | Stimulates mouse | Promotes resolution of | Protects from neutrophil | Promotes tissue repair | Reduces systemic | enhanced; also recorded: Stimulates human
CCC=CCC=CCC(O)C(C=CC=CC=CCC=CCCC(=O)O)SCC(N)C(=O)NCC(=O)O (centres unmarked) [SCII, 13-cysteinylglycinyl, 14-hydroxy-docosahexaenoic acid] | dose-dependently increased; also recorded: Stimulates human | Stimulates mouse | Promotes resolution of | Protects from neutrophil | Promotes tissue repair | Reduces systemic | enhanced; also recorded: Stimulates human
